Positions of bridges follow the written chain, without caps; N, C: chain ends. Residues, ends and D or L forms follow the SMILES beside them.
How the values were obtained:
pepsin = pepsin (Sus scrofa, UniProt P00791); assay: Pepsin digestion resistance in simulated gastric fluid, RP-HPLC; assay type: in vitro ADME, porcine; set-up: purchased Sigma Aldrich P7012; conditions: for Resistance to Pepsin (500 U/ml): 500 U/ml pepsin in SGF pH 1.05, 30 minutes at 37.5° C., HPLC peak vs untreated peptide
Sequence of pepsin (P00791 60-385): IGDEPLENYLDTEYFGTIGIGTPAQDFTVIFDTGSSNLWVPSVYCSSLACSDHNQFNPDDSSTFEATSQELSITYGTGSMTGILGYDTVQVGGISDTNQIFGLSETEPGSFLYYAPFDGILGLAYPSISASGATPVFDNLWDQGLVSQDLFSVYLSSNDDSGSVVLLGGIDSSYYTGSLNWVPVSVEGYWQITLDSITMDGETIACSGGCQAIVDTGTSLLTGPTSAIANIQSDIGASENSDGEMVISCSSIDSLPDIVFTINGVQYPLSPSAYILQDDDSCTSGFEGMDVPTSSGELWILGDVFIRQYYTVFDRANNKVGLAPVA
Procedure: Peptides were first suspended in 500 ul of ddH2O to a stock concentration of 2 mg/ml. Reactions were prepared by adding 12.5 ug of peptide from the stock solution to a 10 mM solution of DTT in PBS and allowed to incubate at room temperature for 30 minutes. Other reactions were prepared with 12.5 μg peptide with or without 500 U/ml pepsin in simulated gastric fluid (SGF; pH 1.05; […] sodium chloride in 0.7% (v/v) hydrochloric acid) and were incubated for 30 minutes at 37.5° C. Some reactions were quenched with a final concentration of 100 mM Tris base and 10 mM dithiothreitol (DTT). Some reactions were performed in all of the above components, including simulated gastric fluid, pepsin, Tris, and DTT (referred to as SPTD). Reversed phase HPLC (RP-HPLC) was run on samples using an Agilent 1260 HPLC equipped with a C-18 Poroshell 120B column. Sample were analyzed by a gradient method with a mobile phase of Solvent A (water with 0.1% TFA) and Solvent B (acetonitrile with 0.1% TFA). Solvent B was ramped up from 5%-45% of the mobile phase over a period of 10 minutes. Peptides were detected at an absorbance of 214 nm and 280 nm.
(§1) Peptides were first suspended in 500 μl of ddH2O to a stock concentration of 2 mg/ml. Reactions were prepared by adding 12.5 μg of peptide from the stock solution to a 10 mM solution of DTT in PBS and allowed to incubate at room temperature for 30 minutes. Other reactions were prepared with 12.5 μg peptide and 500 U/ml trypsin in 25 mM Tris/75 mM NaCl buffer (pH 7.0) and incubated for 30 minutes at 37.5° C. These reactions were then quenched with 5 μg of soybean trypsin inhibitor (I) and, in some cases, 10 mM dithiothreitol (DTT). Reversed phase HPLC (RP-HPLC) was run on samples using an Agilent 1260 HPLC equipped with a C-18 Poroshell 120B column. Sample were analyzed by a gradient method with a mobile phase of Solvent A (water with 0.1% TFA) and Solvent B (acetonitrile with 0.1% TFA). Solvent B was ramped up from 5%-45% of the mobile phase over a period of 10 minutes. For testing pepsin digestion resistance, reactions were prepared with 12.5 μg peptide with or without 500 U/ml pepsin in simulated gastric fluid (SGF; pH 1.05; […] sodium chloride in 0.7% (v/v) hydrochloric acid) and were incubated for 30 minutes at 37.5° C. For testing temperature resistance, peptides were incubated at 70° C., 75° C., or 100° C. for one hour in 0.5 mM PBS, pelleted, and then the supernatant was analyzed by HPLC.
(§2) This example illustrates peptide stability in biological conditions including in the presence of reducing agents, proteases, oxidative conditions, acidic conditions, and simulated gastric fluids. […] Various peptides were suspended in 500 μl of ddH2O at a stock concentration of 2 mg/ml. This was then diluted in accord with the reaction conditions to prevent adverse buffering effects. Reactions were prepared with 12.5 μg peptide dissolved in solution and, in some samples, additionally suspended in a 10 mM solution of DTT, simulated gastric fluid (pH 1.05; […] sodium chloride in 0.7% (v/v) hydrochloric acid), 500 U pepsin (5000 U/ml pepsin), 50 U trypsin (500 U/ml trypsin) with 1 mg/ml inhibitor in PBS, or a combination of any of these conditions. All protease reactions were incubated for 30 min at room temperature and then quenched. Pepsin reactions were quenched by adding Tris base to a final concentration of 0.075 M. Trypsin reactions were quenched by adding excess soybean trypsin inhibitor. RP-HPLC was then run on samples using an Agilent 1260 HPLC equipped with a C-18 Poroshell 120B column. Sample were analyzed by a gradient method with a mobile phase of Solvent A (water with 0.1% TFA) and Solvent B (acetonitrile with 0.1% TFA). Solvent B was ramped up from 5%-45% of the mobile phase over a period of 10 minutes.
FIG. 20 illustrates high performance liquid chromatograph (HPLC) traces of peptides after pepsin digestion. […]

trypsin = trypsin (Sus scrofa, UniProt P00761); assay: Trypsin digestion resistance of soluble peptide, RP-HPLC; assay type: in vitro ADME, porcine; set-up: purchased Sigma Aldrich 6567; conditions: 30 minutes at 37.5° C.; for Resistance to Trypsin (500 U/ml): 500 U/ml trypsin, HPLC peak vs untreated peptide
Sequence of trypsin (P00761 9-231): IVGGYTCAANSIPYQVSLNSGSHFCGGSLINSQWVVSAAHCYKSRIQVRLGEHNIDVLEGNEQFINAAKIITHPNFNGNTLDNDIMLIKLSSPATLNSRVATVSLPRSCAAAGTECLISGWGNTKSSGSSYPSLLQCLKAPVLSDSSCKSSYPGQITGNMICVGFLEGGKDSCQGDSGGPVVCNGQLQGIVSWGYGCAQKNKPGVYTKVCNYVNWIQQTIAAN
Procedure: as §1, §2
Soluble peptides were exposed to 500 U/mL porcine trypsin and analyzed by HPLC. Protease resistance was also assessed by using SDPR-displaying peptides. The SDPR vector is similar to the a surface display GFP FasL(SDGF) vector, but contains a C-terminal 6×His tag (SEQ ID NO: 180) and all basic or aromatic amino acid residues on the stalk removed. Protease resistance is then tested by incubation of cells displaying peptides with trypsin or chymotrypsin, followed by incubation in 10 mM DTT, and staining with an anti-6×His fluorophore-labeled antibody (“6×His” disclosed as SEQ ID NO: 180). If peptides are uncleaved, they retain the His tag and are stained with by the antibody. A control protease-sensitive knottin peptide (SK) was used as a positive control. Cells displaying peptides were treated with up to 40 μg/ml trypsin or chymotrypsin.
FIG. 21 illustrates high performance liquid chromatograph (HPLC) traces of peptides after trypsin digestion. […] The assay was carried out by reconstituting 1 mg porcine trypsin (Sigma Aldrich 6567) in 1 mL of 1 mM HCl. Trypsin was provided at a concentration of 10,000 u/mL and thus, 5 μl of stock solution was equivalent to using 50 U of trypsin in each reaction. Soybean trypsin inhibitor (SA T9128) was prepared at 1 mg/mL of in H2O. […]

| Compound | Resistance to Pepsin (500 U/ml) (pepsin) | Resistance to Trypsin (500 U/ml) (trypsin) | resistance to pepsin digestion (in words) (pepsin; 500 U/ml pepsin (50 U per reaction) in SGF, 30 minutes at 37.5° C., HPLC) | resistance to trypsin digestion (in words) (trypsin; 500 U/ml trypsin (50 U per reaction), HPLC) |
| --- | --- | --- | --- | --- |
| CC[C@H](C)[C@H](NC(=O)CNC(=O)[C@H](CO)NC(=O)CN)C(=O)N[C@H](C(=O)N[C@H]1CSSC[C@@H]2NC(=O)[C@H]([C@@H](C)CC)NC(=O)[C@H](CC(N)=O)NC(=O)[C@H](C(C)C)NC(=O)[C@H](CCCCN)NC(=O)[C@H](CCCCN)NC(=O)CNC(=O)[C@H](CCC(N)=O)NC(=O)[C@H](CCSC)NC(=O)CNC(=O)[C@@H]3CSSC[C@@H](C(=O)N[C@@H](CCCCN)C(=O)N[C@@H](CCCCN)C(=O)NCC(=O)O)NC(=O)[C@H](CCCCN)NC(=O)[C@H](CSSC[C@H](NC(=O)[C@H](C(C)C)NC(=O)[C@H](CCCCN)NC1=O)C(=O)N[C@@H](CCCCN)C(=O)N[C@@H]([C@@H](C)CC)C(=O)N[C@@H]([C@@H](C)CC)C(=O)N3)NC(=O)[C@H](CCCCN)NC(=O)[C@H]([C@@H](C)CC)NC(=O)[C@@H]1CCCN1C(=O)[C@H](C)NC(=O)[C@H](CCCCN)NC2=O)C(C)C [compound 55] (H-GSGIVCKVCKIICGMQGKKVNICKAPIKCKCKKG-OH; disulfide 6-23, 9-29, 13-31) | High (A peptide classified as high indicates that the majority (at least 75%) of the HPLC peak of the treated peptide is still present as compared to the HPLC peak of the untreated peptide) | Low (A peptide classified as low indicates that the majority (over 75%) of the HPLC peak of the treated peptide disappeared as compared to the HPLC peak of the untreated peptide) |  |  |
| CC[C@H](C)[C@H](NC(=O)[C@H](CCCNC(=N)N)NC(=O)[C@@H](NC(=O)[C@H](CO)NC(=O)CN)C(C)C)C(=O)N1CCC[C@H]1C(=O)N[C@H](C(=O)N[C@@H](CO)C(=O)N[C@H]1CSSC[C@@H]2NC(=O)[C@H](CCCCN)NC(=O)CNC(=O)[C@H](Cc3ccccc3)NC(=O)[C@H](CCCNC(=N)N)NC(=O)[C@H](CCSC)NC(=O)CNC(=O)[C@H](C)NC(=O)[C@H](CC(=O)O)NC(=O)[C@H](CCCCN)NC(=O)[C@@H]3CSSC[C@@H](C(=O)N[C@H](C(=O)N4CCC[C@H]4C(=O)N[C@@H](CCCCN)C(=O)O)[C@@H](C)O)NC(=O)[C@H](CC(=O)O)NC(=O)[C@H](CSSC[C@H](NC(=O)[C@H](CCC(N)=O)NC(=O)CNC(=O)[C@H](CO)NC(=O)[C@H](Cc4c[nH]cn4)NC(=O)[C@H](CCCCN)NC1=O)C(=O)N[C@@H](CC(C)C)C(=O)N[C@@H](CCCCN)C(=O)N1CCC[C@H]1C(=O)N3)NC(=O)[C@H](CCCCN)NC(=O)CNC(=O)[C@H](CC(N)=O)NC(=O)[C@H](CCSC)NC2=O)C(C)C [compound 24] (H-GSVRIPVSCKHSGQCLKPCKDAGMRFGKCMNGKCDCTPK-OH; disulfide 9-29, 15-34, 19-36) | High (A peptide classified as high indicates that the majority (at least 75%) of the HPLC peak of the treated peptide is still present as compared to the HPLC peak of the untreated peptide) | Low (A peptide classified as low indicates that the majority (over 75%) of the HPLC peak of the treated peptide disappeared as compared to the HPLC peak of the untreated peptide) |  |  |
| CSCC[C@@H]1NC(=O)[C@@H]2CSSC[C@H](NC(=O)[C@H](CCCCN)NC(=O)[C@@H](NC(=O)[C@H](CC(=O)O)NC(=O)[C@@H](NC(=O)[C@H](Cc3ccccc3)NC(=O)[C@H](CCC(N)=O)NC(=O)[C@H](CO)NC(=O)CN)[C@@H](C)O)C(C)C)C(=O)N[C@@H]([C@@H](C)O)C(=O)NCC(=O)N[C@@H](CO)C(=O)N[C@@H](CCCCN)C(=O)N[C@@H](CCC(N)=O)C(=O)N[C@H]3CSSC[C@H](NC(=O)[C@H](CCCCN)NC(=O)CNC(=O)[C@H](CC(N)=O)NC1=O)C(=O)N[C@@H](CCCNC(=N)N)C(=O)N[C@H](C(=O)N[C@@H](Cc1ccc(O)cc1)C(=O)N[C@@H](CO)C(=O)O)CSSC[C@H](NC(=O)[C@H](C(C)C)NC(=O)[C@@H]1CCCN1C(=O)[C@H](Cc1c[nH]c4ccccc14)NC3=O)C(=O)N[C@@H](CCCCN)C(=O)N[C@@H](CCC(N)=O)C(=O)N[C@@H](CCSC)C(=O)N[C@@H](Cc1ccccc1)C(=O)NCC(=O)N[C@@H](CCCCN)C(=O)N1CCC[C@H]1C(=O)N[C@@H](CC(N)=O)C(=O)NCC(=O)N[C@@H](CCCCN)C(=O)N2 [SEQ ID NO: 12] (H-GSQFTDVKCTGSKQCWPVCKQMFGKPNGKCMNGKCRCYS-OH; disulfide 9-30, 15-35, 19-37) |  |  | highly resistant | moderately resistant |
| CC[C@H](C)[C@@H]1NC(=O)[C@@H](NC(=O)[C@H](CC(=O)O)NC(=O)[C@H](CCCCN)NC(=O)[C@H](CCC(=O)O)NC(=O)[C@H](CO)NC(=O)[C@H](CO)NC(=O)CN)CSSC[C@@H]2NC(=O)[C@@H]3CSSC[C@@H](C(=O)N[C@@H](CCCNC(=N)N)C(=O)O)NC(=O)[C@H](CCCNC(=N)N)NC(=O)[C@H](CCCCN)NC(=O)[C@H](CCC(=O)O)NC(=O)[C@@H]4CCCN4C(=O)[C@H](CC(N)=O)NC(=O)[C@H]([C@@H](C)O)NC(=O)CNC(=O)[C@H](CCCNC(=N)N)NC(=O)[C@H](CCCNC(=N)N)NC(=O)[C@H](CO)NC(=O)[C@H](CSSC[C@H](NC(=O)[C@H](CCCNC(=N)N)NC(=O)[C@H](CCC(N)=O)NC(=O)[C@H](CC(C)C)NC(=O)[C@H](Cc4c[nH]cn4)NC(=O)[C@H](CCCCN)NC1=O)C(=O)N[C@@H](CCCNC(=N)N)C(=O)N[C@@H](CCC(=O)O)C(=O)N[C@@H](CC(N)=O)C(=O)N[C@@H](CCCCN)C(=O)N[C@@H](CC(=O)O)C(=O)N3)NC(=O)[C@H](CCCCN)NC(=O)[C@H](CCCCN)NC(=O)[C@H](CO)NC2=O [compound 29] (H-GSSEKDCIKHLQRCRENKDCCSKKCSRRGTNPEKRCR-OH; disulfide 7-21, 14-25, 20-36) | High (A peptide classified as high indicates that the majority (at least 75%) of the HPLC peak of the treated peptide is still present as compared to the HPLC peak of the untreated peptide) | Low (A peptide classified as low indicates that the majority (over 75%) of the HPLC peak of the treated peptide disappeared as compared to the HPLC peak of the untreated peptide) |  |  |

Reference: patent US20190375786A1, “STABLE PEPTIDES AND METHODS OF USE THEREOF” (Fred Hutchinson Cancer Research Center, priority 2016, published 2019)
